Results as given in ChEMBL document CHEMBL2146469, “Mechanisms involved in the antinociceptive effects of 7-hydroxycoumarin” (J Nat Prod, 2011).
Calls of active or inactive are those of the source.

Assays:
[1] = tested on: Mus musculus; test: Gastric toxicity in Swiss mouse assessed as edema index at 10 mg/kg administered as single dose (reference value: 0.6 +/- 0.2 edema index); type: organism-based; set-up: dose 10 mg/kg; settings: in vivo
[2] = tested on: Mus musculus; test: Gastric toxicity in Swiss mouse assessed as necrosis index at 10 mg/kg administered as single dose (reference value: 0 +/- 0 necrosis index); type: organism-based; set-up: dose 10 mg/kg; settings: in vivo
[3] = tested on: Mus musculus; test: Gastric toxicity in Swiss mouse assessed as erosion index at 10 mg/kg administered as single dose (reference value: 0 +/- 0 erosion index); type: organism-based; set-up: dose 10 mg/kg; settings: in vivo
[4] = tested on: Mus musculus; test: Gastric toxicity in Swiss mouse assessed as inflammatory cell index at 10 mg/kg administered as single dose (reference value: 0.2 +/- 0.2 inflammatory cell index); type: organism-based; set-up: dose 10 mg/kg; settings: in vivo
[5] = tested on: Mus musculus; test: Antinociceptive activity in Swiss mouse inflammatory pain model assessed as reduction in hyperalgesia at 160 ug/paw dosed 45 mins before PGE2 dosing measured 3 hrs post PGE2 challenge; type: functional, organism-based
[6] = tested on: Mus musculus; test: Inhibition of complete Freund's adjuvant-induced TNFalpha production in Swiss mouse at 2 mg/kg, sc dosed 45 mins before complete Freund's adjuvant dosing measured up to 2 hrs post complete Freund's adjuvant challenge by ELISA; type: functional, organism-based; set-up: dose 2 mg/kg
[7] = tested on: Mus musculus; test: Inhibition of complete Freund's adjuvant-induced neutrophil migration to paw tissue in Swiss mouse at 2 mg/kg, sc dosed 45 mins before complete Freund's adjuvant dosing measured 3 to 4 hrs post complete Freund's adjuvant challenge by myeloperoxidase kinetic colorimetric assay; type: functional, organism-based; set-up: dose 2 mg/kg
[8] = tested on: Mus musculus; test: Antinociceptive activity in Swiss mouse inflammatory pain model assessed as reduction in paw edema at 2 mg/kg, sc dosed once daily for 7 days dosed 45 mins before complete Freund's adjuvant dosing measured post complete Freund's adjuvant challenge; type: functional, organism-based; set-up: dose 2 mg/kg
[9] = tested on: Mus musculus; test: Antinociceptive activity in Swiss mouse inflammatory pain model assessed as reduction in hyperalgesia at 0.5 mg/kg, sc dosed once daily for 7 days dosed 45 mins before carrageenan dosing measured 3 hrs post carrageenan challenge; type: functional, organism-based; set-up: dose 0.5 mg/kg
[10] = tested on: Mus musculus; test: Inhibition of complete Freund's adjuvant-induced IL-1beta production in Swiss mouse at 2 mg/kg, sc dosed 45 mins before complete Freund's adjuvant dosing measured up to 24 hrs post complete Freund's adjuvant challenge by ELISA; type: functional, organism-based; set-up: dose 2 mg/kg
[11] = tested on: Mus musculus; test: Antinociceptive activity in Swiss mouse inflammatory pain model assessed as reduction in paw withdrawal response at 2 mg/kg, sc dosed once daily for 7 days dosed 45 mins before complete Freund's adjuvant dosing measured post complete Freund's adjuvant challenge; type: functional, organism-based; set-up: dose 2 mg/kg
[12] = tested on: Mus musculus; test: Antinociceptive activity in Swiss mouse inflammatory pain model assessed as reduction in mechanical hyperalgesia at 2 mg/kg, sc dosed 45 mins before complete Freund's adjuvant dosing measured 4 to 24 hrs post complete Freund's adjuvant challenge by electronic pressure-meter test; type: functional, organism-based; set-up: dose 2 mg/kg
[13] = tested on: Mus musculus; test: Inhibition of carrageenan-induced neutrophil migration to paw tissue in Swiss mouse at 2 mg/kg, sc dosed 45 mins before carrageenan dosing measured 3 to 4 hrs post […] challenge by myeloperoxidase kinetic colorimetric assay; type: functional, organism-based; set-up: dose 2 mg/kg
[14] = tested on: Mus musculus; test: Antinociceptive activity in Swiss mouse inflammatory pain model assessed as reduction in paw withdrawal response at 60 mg/kg, po dosed once daily for 7 days dosed 45 mins before complete Freund's adjuvant dosing measured 2 days post compound withdrawal; type: functional, organism-based; set-up: dose 60 mg/kg
[15] = tested on: Mus musculus; test: Inhibition of carrageenan-induced neutrophil migration to paw tissue in Swiss mouse at 60 mg/kg, po dosed 45 mins before carrageenan dosing measured 3 to 4 hrs post […] challenge by myeloperoxidase kinetic colorimetric assay; type: functional, organism-based; set-up: dose 60 mg/kg
[16] = tested on: Mus musculus; test: Inhibition of carrageenan-induced PGE2 production in Swiss mouse at 60 mg/kg, po dosed 45 mins before carrageenan dosing measured 3 hrs post carrageenan challenge by ELISA; type: functional, organism-based; set-up: dose 60 mg/kg
[17] = tested on: Mus musculus; test: Gastric toxicity in Swiss mouse assessed as erosion index at 60 mg/kg administered daily with single dose (reference value: 0 +/- 0 erosion index); type: organism-based; set-up: dose 60 mg/kg; settings: in vivo
[18] = tested on: Mus musculus; test: Antinociceptive activity in Swiss mouse inflammatory pain model assessed as reduction in mechanical hyperalgesia at 30 to 120 mg/kg, po dosed 45 mins before complete Freund's adjuvant dosing measured 6 hrs post complete Freund's adjuvant challenge by electronic pressure-meter test; type: functional, organism-based
[19] = tested on: Mus musculus; test: Antinociceptive activity in Swiss mouse inflammatory pain model assessed as reduction in mechanical hyperalgesia at 30 to 120 mg/kg, po dosed 45 mins before complete Freund's adjuvant dosing measured 2 hrs post complete Freund's adjuvant challenge by electronic pressure-meter test; type: functional, organism-based
[20] = tested on: Mus musculus; test: Toxicity in Swiss mouse assessed as ALT level at 60 mg/kg, po dosed once daily for 7 days (reference value: 68.0 +/- 12.8 UI/L); type: organism-based; set-up: dose 60 mg/kg, route oral; settings: in vivo, 168 h
[21] = tested on: Mus musculus; test: Antinociceptive activity in Swiss mouse inflammatory pain model assessed as reduction in paw withdrawal response at 60 mg/kg, po dosed once daily for 7 days dosed 45 mins before complete Freund's adjuvant dosing measured post complete Freund's adjuvant challenge; type: functional, organism-based; set-up: dose 60 mg/kg
[22] = tested on: Mus musculus; test: Inhibition of complete Freund's adjuvant-induced neutrophil migration to paw tissue in Swiss mouse at 60 mg/kg, po dosed 45 mins before complete Freund's adjuvant dosing measured 3 to 4 hrs post complete Freund's adjuvant challenge by myeloperoxidase kinetic colorimetric assay; type: functional, organism-based; set-up: dose 60 mg/kg
[23] = tested on: Mus musculus; test: Antinociceptive activity in Swiss mouse inflammatory pain model assessed as reduction in hyperalgesia at 60 mg/kg, po dosed once daily for 7 days dosed 45 mins before PGE2 dosing measured 3 hrs post PGE2 challenge; type: functional, organism-based; set-up: dose 60 mg/kg
[24] = tested on: Mus musculus; test: Antinociceptive activity in Swiss mouse inflammatory pain model assessed as reduction in hyperalgesia at 120 mg/kg, po dosed once daily for 7 days dosed 45 mins before PGE2 dosing measured 3 hrs post PGE2 challenge; type: functional, organism-based; set-up: dose 120 mg/kg
[25] = tested on: Mus musculus; test: Toxicity in Swiss mouse assessed as liver weight changes per 10 gram of body weight at 60 mg/kg, po dosed once daily for 7 days (reference value: 0.73 +/- 0.07 g/10 g body weight); type: organism-based; set-up: dose 60 mg/kg, route oral; settings: in vivo, 168 h
[26] = tested on: Mus musculus; test: Toxicity in Swiss mouse assessed as total leukocytes level at 60 mg/kg, po dosed once daily for 7 days (reference value: 5.9 +/- 0.8 10^3/mL); type: organism-based; set-up: dose 60 mg/kg, route oral; settings: in vivo, 168 h
[27] = tested on: Mus musculus; test: Gastric toxicity in Swiss mouse assessed as necrosis index at 60 mg/kg administered daily with single dose (reference value: 0 +/- 0 necrosis index); type: organism-based; set-up: dose 60 mg/kg; settings: in vivo
[28] = tested on: Mus musculus; test: Inhibition of complete Freund's adjuvant-induced TNFalpha production in Swiss mouse at 60 mg/kg, po dosed 45 mins before complete Freund's adjuvant dosing measured up to 2 hrs post complete Freund's adjuvant challenge by ELISA; type: functional, organism-based; set-up: dose 60 mg/kg
[29] = tested on: Mus musculus; test: Gastric toxicity in Swiss mouse assessed as inflammatory cell index at 60 mg/kg administered daily with single dose (reference value: 0.2 +/- 0.2 inflammatory cell index); type: organism-based; set-up: dose 60 mg/kg; settings: in vivo
[30] = tested on: Mus musculus; test: Toxicity in Swiss mouse assessed as AST level at 60 mg/kg, po dosed once daily for 7 days (reference value: 145.7 +/- 23.4 UI/L); type: organism-based; set-up: dose 60 mg/kg, route oral; settings: in vivo, 168 h
[31] = tested on: Mus musculus; test: Toxicity in Swiss mouse assessed as heart weight changes per 10 gram of body weight at 60 mg/kg, po dosed once daily for 7 days (reference value: 0.05 +/- 0.00 g/10 g body weight); type: organism-based; set-up: dose 60 mg/kg, route oral; settings: in vivo, 168 h
[32] = tested on: Mus musculus; test: Toxicity in Swiss mouse assessed as creatinine level at 60 mg/kg, po dosed once daily for 7 days (reference value: 0.26 +/- 0.05 mg/dL); type: organism-based; set-up: dose 60 mg/kg, route oral; settings: in vivo, 168 h
[33] = tested on: Mus musculus; test: Effect on baseline nociceptive threshold in Swiss mouse inflammatory pain model at 30 to 120 mg/kg, po dosed 45 mins before complete Freund's adjuvant dosing measured 4 to 24 hrs post complete Freund's adjuvant challenge by electronic pressure-meter test; type: functional, organism-based
[34] = tested on: Mus musculus; test: Toxicity in Swiss mouse assessed as kidney weight changes per 10 gram of body weight at 60 mg/kg, po dosed once daily for 7 days (reference value: 0.06 +/- 0.00 g/10 g body weight); type: organism-based; set-up: dose 60 mg/kg, route oral; settings: in vivo, 168 h
[35] = tested on: Mus musculus; test: Toxicity in Swiss mouse assessed as corporal mass changes at 60 mg/kg, po dosed once daily for 7 days (reference value: 0.58 +/- 0.03 g); type: organism-based; set-up: dose 60 mg/kg, route oral; settings: in vivo, 168 h
[36] = tested on: Mus musculus; test: Inhibition of complete Freund's adjuvant-induced IL-1beta production in Swiss mouse at 60 mg/kg, po dosed 45 mins before complete Freund's adjuvant dosing measured up to 24 hrs post complete Freund's adjuvant challenge by ELISA; type: functional, organism-based; set-up: dose 60 mg/kg
[37] = tested on: Mus musculus; test: Antinociceptive activity in Swiss mouse inflammatory pain model assessed as reduction in paw edema at 60 mg/kg, po dosed once daily for 7 days dosed 45 mins before complete Freund's adjuvant dosing measured post complete Freund's adjuvant challenge; type: functional, organism-based; set-up: dose 60 mg/kg
[38] = tested on: Mus musculus; test: Antinociceptive activity in Swiss mouse inflammatory pain model assessed as reduction in hyperalgesia at 60 mg/kg, po dosed once daily for 7 days dosed 45 mins before carrageenan dosing measured 3 hrs post carrageenan challenge; type: functional, organism-based; set-up: dose 60 mg/kg
[39] = tested on: Mus musculus; test: Gastric toxicity in Swiss mouse assessed as edema index at 60 mg/kg administered daily with single dose (reference value: 0.6 +/- 0.2 edema index); type: organism-based; set-up: dose 60 mg/kg; settings: in vivo
[40] = tested on: Mus musculus; test: Antinociceptive activity in Swiss mouse inflammatory pain model assessed as reduction in mechanical hyperalgesia at 30 to 120 mg/kg, po dosed 45 mins before complete Freund's adjuvant dosing measured 24 hrs post complete Freund's adjuvant challenge by electronic pressure-meter test; type: functional, organism-based
[41] = species on record: Mus musculus; settings: Swiss, 5 mg/kg
Description: Inhibition of carrageenan-induced PGE2 production in Swiss mouse at 5 mg/kg, po dosed 45 mins before carrageenan dosing measured 3 hrs post carrageenan challenge by ELISA

COc1ccc2c(c1)c(CC(=O)O)c(C)n2C(=O)c1ccc(Cl)cc1 [INDOMETHACIN]
Activity [1]: 2.6 | Activity [2]: 0 | Activity [3]: 3 | Activity [4]: 4

Cc1c(N(C)CS(=O)(=O)O)c(=O)n(-c2ccccc2)n1C
Activity [5]: Active

C[C@@H]1C[C@H]2[C@@H]3CCC4=CC(=O)C=C[C@]4(C)[C@@]3(F)[C@@H](O)C[C@]2(C)[C@@]1(O)C(=O)CO
inhibition [6]: Active | inhibition [7]: Active | Activity [8]: Active | Activity [9]: Active | inhibition [10]: Active | Activity [11]: Active | Activity [12]: Active | inhibition [13]: Active

O=c1ccc2ccc(O)cc2o1 [UMBELLIFERONE]
Activity [14]: inactive | inhibition [15]: Active | inhibition [16]: Active | Activity [17]: 0 | Activity [18]: Dose-dependent effect | Activity [19]: Dose-dependent effect | Activity [20]: 51 IU/L | Activity [21]: Active | inhibition [22]: Active | Activity [23]: inactive | Activity [24]: inactive | Activity [25]: 0.72 g | Activity [26]: 6.725 ×10³ /ml | Activity [27]: 0 | inhibition [28]: Active | Activity [29]: 0.4 | Activity [30]: 115 IU/L | Activity [31]: 0.05 g | Activity [32]: 0.27 mg/dL | Activity [33]: inactive | Activity [34]: 0.07 g | Activity [35]: 0.6 g | inhibition [36]: Active | Activity [37]: Active | Activity [38]: Active | Activity [39]: 0.7 | Activity [40]: Dose-dependent effect

CS(=O)(=O)Nc1ccc([N+](=O)[O-])cc1Oc1ccccc1
inhibition [41]: Active
